Patent publication US9637490B2, “Antifungal 5,6-dihydro-4-[(difluoroethyl)phenyl]-4H-pyrrolo[1,2-α][1,4]benzodiazepine and 4-(difluoroethyl)phenyl-6H-pyrrolo[1,2-α][1,4]benzodiazepine derivatives” (Janssen Pharmaceutica NV, priority 2010, dated 2017)

Assays:
Microsporum canis B68128 = test: Antifungal activity in vitro (resazurin susceptibility screen), Inf. B; type: cell-based; details: Microsporum canis, B68128, Microsporum canis B68128; 27 °C, 9 days, resa time 24 hours
Procedure: (§1) The standard susceptibility screen was performed in 96-well plates (U-bottom, Greiner Bio-One). Serial dilutions (2-fold or 4-fold) of 20 mM compound stock solutions were made in 100% DMSO, followed by an intermediate dilution step in water. These serial dilutions (10 μl) were then spotted onto test-plates that could be stored in the dark at 4° C. for a maximum period of 2 weeks. An adequate broad dose-range was included with 64 μM as the highest in-test concentration. The culture medium RPMI-1640 was supplemented with L-glutamine, 2% glucose and buffered with 3-(N-morpholino)-propanesulfonic acid (MOPS) at pH 7.0±0.1. The different fungal species/isolates (Table 3a) were cryopreserved and 1/1000 diluted in medium just prior to use. A standard inoculum of 200 μl containing 10^3 colony-forming unit (cfu) was then added to each well. A positive control (100% growth=fungal culture without antifungal) and a negative control (0% growth=RPMI-MOPS medium) were included on each plate. Optimal incubation time and temperature were dependent on the fungal species and vary from 24 h for yeasts (37° C.) to one week or more for dermatophytes (27° C.). Inhibition of fungal growth was measured after adding 10 μl of 0.005% (w/v) resazurin (Sigma Aldrich) to each well, based on the principle that living cells convert the non-fluorescent blue resazurin into the pink and fluorescent resorufin, allowing fluorimetric reading (λhd ex 550 nm and μem 590 nm) after an additional incubation period (‘resa’ time mentioned in Table 3a). [table]

[1] = test system: Rhizomucor miehei IHEM13391; test: Antifungal activity in vitro (resazurin susceptibility screen), Inf. K; type: cell-based; details: Rhizomucor miehei, IHEM13391, Rhizomucor miehei IHEM13391; 37 °C, 48 hours, resa time 17 hours
Procedure: as §1

[2] = test system: Candida parapsilosis B66126; test: Antifungal activity in vitro (resazurin susceptibility screen), Inf. D; type: cell-based; details: Lodderomyces parapsilosis, B66126, Candida parapsilosis B66126; 37 °C, 24 hours, resa time 4 hours
Procedure: as §1

[3] = test system: Mucor circinelloides IHEM21105; test: Antifungal activity in vitro (resazurin susceptibility screen), Inf. L; type: cell-based; details: 27 °C, 48 hours, resa time 17 hours
Procedure: as §1

Rhizopus oryzae IHEM5223 = test: Antifungal activity in vitro (resazurin susceptibility screen), Inf. J; type: cell-based; details: Rhizopus arrhizus, 37 °C, 24 hours, resa time 6 hours
Procedure: as §1

[4] = test system: Scedosporium apiospermum IHEM3817; test: Antifungal activity in vitro (resazurin susceptibility screen), Inf. H; type: cell-based; details: Scedosporium apiospermum, IHEM3817, Scedosporium apiospermum IHEM3817; 37 °C, 48 hours, resa time 17 hours
Procedure: as §1

[5] = test system: Trichophyton rubrum B68183; test: Antifungal activity in vitro (resazurin susceptibility screen), Inf. C; type: cell-based; details: Trichophyton rubrum, B68183, Trichophyton rubrum B68183; 27 °C, 7 days, resa time 24 hours
Procedure: as §1

[6] = test system: Aspergillus fumigatus B42928; test: Antifungal activity in vitro (resazurin susceptibility screen), Inf. E; type: cell-based; details: Aspergillus fumigatus, B42928, Aspergillus fumigatus B42928; 27 °C, 48 hours, resa time 17 hours
Procedure: as §1

[7] = test system: Scedosporium prolificans IHEM21157; test: Antifungal activity in vitro (resazurin susceptibility screen), Inf. I; type: cell-based; details: Lomentospora prolificans, 37 °C, 48 hours, resa time 17 hours
Procedure: as §1

[8] = test system: Trichophyton mentagrophytes B70554; test: Antifungal activity in vitro (resazurin susceptibility screen), Inf. G; type: cell-based; details: Trichophyton mentagrophytes, B70554, Trichophyton mentagrophytes B70554; 27 °C, 7 days, resa time 24 hours
Procedure: as §1

[9] = test system: Sporothrix schenkii B62482; test: Antifungal activity in vitro (resazurin susceptibility screen), Inf. A; type: cell-based; details: Sporothrix, B62482, Sporothrix schenkii B62482; 27 °C, 4 days, resa time 24 hours
Procedure: as §1

[10] = test system: Cryptococcus neoformans B66663; test: Antifungal activity in vitro (resazurin susceptibility screen), Inf. F; type: cell-based; details: Cryptococcus neoformans, B66663, Cryptococcus neoformans B66663; 37 °C, 24 hours, resa time 4 hours
Procedure: as §1

SMILES | IC50 (Microsporum canis B68128) [µM] | IC50 [1] [µM] | IC50 [2] [µM] | IC50 [3] [µM] | IC50 (Rhizopus oryzae IHEM5223) [µM] | IC50 [4] [µM] | IC50 [5] [µM] | IC50 [6] [µM] | IC50 [7] [µM] | IC50 [8] [µM] | melting point | IC50 [9] [µM] | IC50 [10] [µM]
Cc1ccc(Cl)c2c1CN=C(c1ccc(C(C)(F)F)cc1)c1cccn1-2 [Compound 28, 10-chloro-4-[4-(1,1-difluoroethyl)phenyl]-7-methyl-6H-pyrrolo[1,2-a][1,4]-benzodiazepine] | 14.1 | 41.7 | 45.7 | > 64.6 | > 64.6 | 0.708 | 7.41 | ≥ 64.6 | 2.29 | 26.9 | 139.3 to 141.2 °C | 28.2 | 16.6
CC(F)(F)c1ccc(C2=NCc3c(Cl)cccc3-n3cccc32)cc1F [Compound 29, 7-chloro-4-[4-(1,1-difluoroethyl)-3-fluorophenyl]-6H-pyrrolo[1,2-a][1,4]benzodiazepine] | 0.11 | > 64.6 | > 64.6 | > 64.6 | > 64.6 | > 64.6 | 0.0851 | 0.501 | > 64.6 | 0.191 | 186.3 to 186.6 °C | > 64.6 | > 64.6
CC(F)(F)c1ccc(C2=NCc3c(Cl)cc(F)cc3-n3cccc32)cc1F [Compound 31, 7-chloro-4-[4-(1,1-difluoroethyl)-3-fluorophenyl]-9-fluoro-6H-pyrrolo[1,2-a][1,4]-benzodiazepine] | 0.437 | > 64.6 | 3.47 | > 64.6 | > 64.6 | 10.5 | 0.468 | 0.501 | 8.71 | 1.26 | 162.5 to 164.8 °C | 2.34 | 0.295
CC(F)(F)c1ccc(C2=NCc3cccc(Cl)c3-n3cccc32)cc1 [Compound 19, 10-chloro-4-[4-(1,1-difluoroethyl)phenyl]-6H-pyrrolo[1,2-a][1,4]benzodiazepine] | 2.04 | 14.5 | 13.2 | > 64.6 | 9.77 | 2.34 | 0.214 | 2.04 | 0.513 | 0.646 | 247.5 °C (dec.) | 2.82 | 1.62
CC(F)(F)c1ccc(C2=NCc3c(F)cc(F)cc3-n3cccc32)cc1F [Compound 33, 4-[4-(1,1-difluoroethyl)-3-fluorophenyl]-7,9-difluoro-6H-pyrrolo[1,2-a][1,4]-benzodiazepine] | 1.95 | > 64.6 | 13.5 | > 64.6 | > 64.6 | 0.646 | 0.724 | 1.91 | 10.5 | 2.14 | 158.2 to 161.3 °C | 9.33 | 2.63
CC(F)(F)c1cc(C2=NCc3c(Cl)cc(F)cc3-n3cccc32)ccc1F [Compound 26, 7-chloro-4-[3-(1,1-difluoroethyl)-4-fluorophenyl]-9-fluoro-6H-pyrrolo[1,2-a][1,4]-benzodiazepine] | 0.468 | 13.5 | 3.8 | > 64.6 | > 64.6 | 0.158 | 0.468 | 0.589 | 0.191 | 1.2 | 84.9 to 85.9 °C | 10.2 | > 64.6
CC(F)(F)c1ccc(C2=NCc3c(F)cccc3-n3cccc32)cc1F [Compound 30, 4-[4-(1,1-difluoroethyl)-3-fluorophenyl]-7-fluoro-6H-pyrrolo[1,2-a][1,4]benzodiazepine] | 0.468 | 12.3 | 7.76 | > 64.6 | > 64.6 | 8.91 | 0.162 | 0.501 | 4.57 | 0.363 | 170.8 to 171.5 °C | > 64.6 | 1.41
